# Assay results from ChEMBL document CHEMBL5620379, “Discovery, SAR and mechanistic studies of quinazolinone-based acetamide derivatives in experimental visceral leishmaniasis” (Eur J Med Chem, 2023).
# How the values were obtained:
# [1] = system: J774; assay: Cytotoxicity against mouse J774 cells at 50 uM incubated for 72 hrs by MTT assay relative to control; format: toxicity, cell-based; settings: j774, 72 h
# [2] = system: J774; assay: Cytotoxicity against mouse J774 cells at 25 uM incubated for 72 hrs by MTT assay relative to control; format: toxicity, cell-based; settings: j774, 72 h
# [3] = system: J774; assay: Cytotoxicity against mouse J774 cells at 12.5 uM incubated for 72 hrs by MTT assay relative to control; format: toxicity, cell-based; settings: j774, 72 h
# [4] = system: Leishmania donovani; assay: Antileishmanial activity against Leishmania donovani promastigotes measured after 48 hrs by MTT assay; format: functional, organism-based
# [5] = Selectivity index, ratio of CC50 for mouse J774 macrophage to IC50 for Leishmania donovani amastigotes infected in J774 macrophage; format: toxicity; settings: J774 macrophages, read-out: Ratio CC50/IC50
# [6] = system: Leishmania donovani; assay: Antileishmanial activity against Leishmania donovani amastigotes infected in J774 macrophage assessed as inhibition of parasite growth incubated for 48 hrs by luciferase assay; format: functional, organism-based; settings: J774, 48 h
# [7] = system: J774; assay: Cytotoxicity against mouse J774 macrophage incubated for 72 hrs by MTT assay; format: functional
# [8] = system: Leishmania donovani; assay: Antileishmanial activity against Leishmania donovani amastigotes infected in J774 macrophage assessed as inhibition of parasite growth at 25 uM incubated for 48 hrs by luciferase assay relative to control; format: functional; parameters: scale not given: the % may be the effect or the level left
# [9] = system: Leishmania donovani; assay: Antileishmanial activity against Leishmania donovani promastigotes at 25 uM measured after 48 hrs by MTT assay relative to control; format: functional
Compound,Activity [1],Activity [2],Activity [3],IC50 [4],selectivity ratio [5],IC50 [6],CC50 [7],Activity [8],Activity [9]
CCn1c(-c2ccc(OCC(=O)Nc3ccc(F)cc3)cc2)nc2ccccc2c1=O,34.39%,43.73%,59.51%,–,–,–,–,–,–
Cn1c(-c2ccc(OCC(=O)Nc3ccccc3)cc2)nc2ccccc2c1=O,42.62%,78.47%,87.94%,17.6 µM,1.91,22.6 µM,43.2 µM,–,–
Cn1c(-c2ccc(OCC(=O)Nc3ccc([N+](=O)[O-])cc3)cc2)nc2ccccc2c1=O,55.85%,80.58%,84.05%,18.8 µM,2.45,22.2 µM,54.4 µM,–,–
Cn1c(-c2ccc(OCC(=O)Nc3ccccn3)cc2)nc2cc(F)ccc2c1=O,30.36%,58.74%,85.3%,6.25 µM,3.82,9.16 µM,35.1 µM,–,–
Cn1c(-c2ccc(OCC(=O)Nc3ccccn3)cc2)nc2ccc(Cl)cc2c1=O,39.88%,59.37%,65.58%,–,–,–,–,–,–
Cn1c(-c2ccc(OCC(=O)Nc3ccc4c(c3)CCC4)cc2)nc2ccccc2c1=O,36.13%,53.88%,87.89%,8.26 µM,5.09,6.23 µM,31.7 µM,78.87%,79.73%
CCn1c(-c2ccc(OCC(=O)Nc3ccccn3)cc2)nc2ccccc2c1=O,38.97%,79.09%,84.82%,23.9 µM,1.45,27.2 µM,39.5 µM,–,–
Cn1c(-c2ccc(OCC(=O)Nc3ccncc3)cc2)nc2ccccc2c1=O,40.96%,51.89%,71.91%,–,–,–,–,–,–
Cn1c(-c2ccc(OCC(=O)Nc3cccc(C(F)(F)F)c3)cc2)nc2ccccc2c1=O,48.49%,78.66%,86.45%,12.3 µM,2.17,21.9 µM,47.7 µM,–,–
CCc1ccc(NC(=O)COc2ccc(-c3nc4ccccc4c(=O)n3C)cc2)cc1,33.38%,79.14%,81.78%,15.1 µM,1.89,20.1 µM,38.1 µM,–,–
Cn1c(-c2ccc(OCC(=O)Nc3cccc4cccnc34)cc2)nc2ccccc2c1=O,42.14%,76.21%,82.65%,16.1 µM,2.32,18.4 µM,42.7 µM,–,–
CCn1c(-c2ccc(OCC(=O)Nc3ccc(OC)cc3)cc2)nc2ccccc2c1=O,43.01%,62.11%,67.45%,–,–,–,–,–,–
CCn1c(-c2ccc(OCC(=O)Nc3ccc(Cl)cc3)cc2)nc2ccccc2c1=O,32.52%,47.53%,67.21%,–,–,–,–,–,–
Cn1c(-c2ccc(OCC(=O)Nc3ccc(C(C)(C)C)cc3)cc2)nc2ccccc2c1=O,26.84%,55.66%,59.75%,–,–,–,–,–,–
Cc1ccc(NC(=O)COc2ccc(-c3nc4ccccc4c(=O)n3C)cc2)cc1,49.93%,81.98%,85.59%,22.1 µM,2.07,24.5 µM,50.7 µM,–,–
